The record followed here is PubChem BioAssay AID588709 (The Scripps Research Institute Molecular Screening Center, 2011).

The term IC50 denotes the point on the concentration scale where inhibition reaches its midpoint.

“And” between values parts separate entries of the source, which are not always exact repeats. Equal values may be shown once. The source made the active and inactive calls. How the calls were made is not given here.

The experiment concerns HEK293 cytotoxicity, ATP luminescence. The experiment can be described thus: cytotoxicity in HEK cells, dose response, counter-screen for IDE inhibitor project, cell-based, luminescence (AID 588709). (In general: A counterscreen serves to expose hits that act by an unwanted route or on another target.)
For `COc1ccc(C(=O)N2CCN(C(=O)C3COc4ccccc4O3)CC2)cc1OC` (stereo unspecified), the IC50 was > 71.5 µM (inactive).

Take `O=c1c2ccccc2sn1-c1cc(S(=O)(=O)N2CCOCC2)ccc1N1CCOCC1`: the IC50 was 9.61 µM.

As to `O=C(Nc1cccc(C(F)(F)F)c1)c1csc(Cc2cccc(C(F)(F)F)c2)n1`, the IC50 was 29.5 µM (inactive).

Take `Cc1ccc(C)c(N2C(=N)S/C(=C\c3ccc(-c4ccccc4C(=O)O)o3)C2=O)c1`: the IC50 is > 71.5 µM (inactive).

For `Nc1c(C(=O)Nc2nccs2)sc2nc(-c3cccs3)cc(C(F)(F)F)c12`, the IC50 is 9.06 µM.

Regarding `CCN(CC)c1ccc(/C=C2\C(=N)N3N=C(CC(=O)N4CCOCC4)SC3=NC2=O)cc1`, the IC50 is > 71.5 µM (inactive).

In the case of `O=C(Nc1cccc(C(F)(F)F)c1)c1csc(-c2cccc(C(F)(F)F)c2)n1`, the IC50 is 55.9 µM (inactive).

Turning to `O=C(C1CC1)N1CCN(c2ccnc3cc(Cl)ccc23)CC1`, the IC50 is > 71.5 µM (inactive).

For `COc1cc(/C=C2\SC(=S)N(NC(C)=O)C2=O)ccc1OC(=O)c1ccco1`, the IC50 was > 71.5 µM (inactive).

As to `O=C(Nc1cccc(C(F)(F)F)c1)c1csc(-c2ccccc2)n1`, the IC50 is 33.3 µM (inactive).

Turning to `O=C(CSc1nnc(-c2cccc(Cl)c2)n1Cc1ccco1)Nc1ccccc1C(F)(F)F`, the IC50 is 30.9 µM (inactive).

`O=C(CSc1nnc(-c2cccc(Cl)c2)n1Cc1ccco1)c1ccc2ccccc2c1`: the IC50 is 30.7 µM (inactive).

For `Cc1nc(-c2cccnc2)sc1C(=O)Nc1cccc(C(F)(F)F)c1`, the IC50 was 15.8 µM (inactive).

For `O=C(CSc1nnc(-c2cccc(Cl)c2)n1Cc1ccco1)Nc1ccc2c(c1)OCCO2`, the IC50 was 29.7 µM (inactive).

Take `O=C(Nc1cccc(C(F)(F)F)c1)c1csc(-c2ccncc2)n1`: the IC50 was 24.1 µM (inactive).

Consider `COc1cccc(-c2nnc(SCc3nc4ccccc4[nH]3)n2Cc2ccco2)c1`, for which the IC50 is 36.5 µM (inactive).

Turning to `Clc1cccc(-c2nnc(SCc3nc4ccccc4[nH]3)n2-c2ccccc2)c1`, the IC50 is 31.2 µM (inactive).

For `Cn1c(SCc2nc3ccccc3[nH]2)nnc1-c1cccc(Cl)c1`, the IC50 is > 71.5 µM (inactive).

Take `Cc1cccc(-c2nnc(SCc3nc4ccccc4[nH]3)n2Cc2ccco2)c1`: the IC50 was 34.8 µM (inactive) and 32.7 µM (inactive).

Turning to `CCOc1ccc2[nH]c3c(N4CCN(C(=O)c5ccco5)CC4)ncnc3c2c1`, the IC50 was 21.1 µM (inactive).

As for `O=C(Nc1ccc2oc(-c3cccnc3)nc2c1)c1ccc2c(c1)OCCO2`, the IC50 is > 71.5 µM (inactive).

As for `Cc1c(CCC(=O)NCCCn2ccnc2)c(=O)oc2cc3oc4c(c3cc12)CCCC4`, the IC50 is 21.4 µM (inactive).

Consider `COc1ccc(-c2nc(C(=O)Nc3cccc(C(F)(F)F)c3)cs2)cc1`, for which the IC50 is 67.8 µM (inactive).

Regarding `O=C(CSc1nnc(-c2cccc(Cl)c2)n1Cc1ccco1)Nc1ccc2cn[nH]c2c1`, the IC50 is > 71.5 µM (inactive).

As to `Cc1ccc(-c2nc(C(=O)Nc3cccc(C(F)(F)F)c3)cs2)cc1`, the IC50 is 36.1 µM (inactive).

Take `Cc1ccc(NC(=O)CSc2nnc(-c3cccc(Cl)c3)n2Cc2ccco2)c(C)c1`: the IC50 is 35.6 µM (inactive).

As to `Cn1c(=O)c(C(=O)CN2CCCc3ccccc32)c(N)n(Cc2ccccc2)c1=O`, the IC50 was 30.1 µM (inactive).

Regarding `COc1ccc(NC(=O)CSc2nnc(CN3CCOCC3)n2C)cc1Cl`, the IC50 is > 71.5 µM (inactive).

`CC(Sc1nnc(-c2cccnc2)n1-c1ccccc1F)C(=O)N1CCCc2ccccc21` (stereo unspecified): the IC50 is 32.1 µM (inactive).

Consider `Clc1cccc(-c2nnc(SCc3nc4ccccc4[nH]3)n2Cc2ccco2)c1`, for which the IC50 is 23.3 µM (inactive).

Regarding `O=C(Nc1cc(C(F)(F)F)cc(C(F)(F)F)c1)c1csc(-c2ccncc2)n1`, the IC50 is > 71.5 µM (inactive).
